This passage reports TGI results from PubChem BioAssay (NCI).

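Cultured in 96-well plates, cells were exposed to test compound for 48 hours across five concentrations. At the TGI there is no net growth.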 Some results are limits rather than exact numbers.

Common to all, as to experiment: NCI tumour cell line growth inhibition, 48 h
In test [1] the test system is SK-MEL-5 melanoma.
Test [2] relates to SW-620 colon.
The subject of test [3] is MOLT-4 leukemia.
Test [4] concerns HT29 colon.
Test [5] deals with SNB-19 CNS.
In test [6] the test system is COLO 205 colon.
The subject of test [7] is HCT-15 colon.
For test [8], the system named is HOP-62 NSCLC.
Test [9] relates to NCI-H522 lung.
Test [10] concerns SK-MEL-28 melanoma.
For test [11], the system named is BT-549 breast.
For test [12], the system named is UACC-62 melanoma.
The subject of test [13] is SR leukemia.
Test [14] concerns TK-10 renal.
Test [15] concerns MDA-MB-435.
The subject of test [16] is OVCAR-8 ovarian.
Test [17] deals with LOX IMVI melanoma.
The test system of test [18] is UACC-257 melanoma.
For test [19], the system named is SK-OV-3 ovarian.

Turning to `Cc1ccc(C)n1-n1c(Cc2ccccc2)n[nH]c1=O`, the TGI in test [1], in test [2], in [3], in test [4], in test [5] and in test [6] was over 100 µM throughout. For the same compound, the TGI in [7], in test [8], in [9], in [10], in test [11] and in [12] was over 100 µM in each case. Further, the TGI in test [13], in test [14], in test [15], in [16], in test [17] and in test [18] was over 100 µM each time. The TGI in [19] was over 100 µM.
Consider `C=CCN1C(=O)/C(=C/c2ccc(OC)cc2)NC1=S`, for which the TGI was over 100 µM in test [1]; over 100 µM in [2]; 25.6 µM in [3]; over 100 µM in test [4]; over 100 µM in test [5]; over 100 µM in [6]. Moreover, the TGI in test [7], in [8], in [9], in test [10], in [11] and in test [12] was over 100 µM each time. Moreover, the TGI is over 100 µM in test [13]; over 100 µM in test [14]; over 100 µM in test [15]; over 100 µM in test [16]; over 100 µM in test [17]; 78.3 µM in test [18]. Besides, the TGI in test [19] was over 100 µM.
Regarding `Nc1nc(Cl)c2ncn(Cc3ccc(CCl)cc3)c2n1`, the TGI is 31 µM in [1]; 13.8 µM in [2]; over 100 µM in test [3]; 27.6 µM in test [4]; 20 µM in [5]; 13.4 µM in [6]. Also, the TGI in test [7] was determined as 19.8 µM; in test [8], 27.3 µM; in [9] it was 25.9 µM; in [10], 44.4 µM; in test [11], 24.5 µM; in test [12], 8.18 µM. Also, the TGI in test [13] worked out at 9.37 µM; in test [14], 40.5 µM; in test [15], 42.5 µM; in test [16] it was 32.8 µM; in test [17] it was 43.9 µM; in test [18], 47.9 µM. Also, the TGI in test [19] is 31.1 µM.
With `Cc1ccc(NC(=O)CSc2nc(C)nc3c2sc(=S)n3-c2ccccc2)cc1`, the TGI in test [1], in test [2], in test [3], in [4], in [5] and in test [6] was over 10 µM throughout. The TGI was over 10 µM in test [7]; 5.08 µM in [8]; over 10 µM in [9]; over 10 µM in [10]; 9.55 µM in test [11]; over 10 µM in [12]. Moreover, the TGI in test [13], in [14], in test [15], in test [16], in test [17] and in [18] was over 10 µM each time. Moreover, the TGI in [19] was over 10 µM.
For `CC(C)(C)OC(=O)c1cnc(Cl)cn1`, the TGI in test [1], in [2], in test [3], in [4], in [5] and in test [6] was over 100 µM throughout. Also, the TGI in test [7] is 27.5 µM; in [8], over 100 µM; in test [9], 2.78 µM; in [10], over 100 µM; in test [11] it was over 100 µM; in test [12], over 100 µM. Besides, the TGI is over 100 µM in test [13]; over 100 µM in test [14]; over 100 µM in [15]; over 100 µM in [16]; 62.9 µM in test [17]; over 100 µM in [18]. The TGI in test [19] was over 100 µM.
In the case of `O=c1[nH]/c(=C/c2ccc(OCc3ccccc3)cn2)c(=O)[nH]/c1=C/c1ccc([N+](=O)[O-])cc1`, the TGI in [1], in test [2], in [3], in test [4], in test [5] and in test [6] was over 100 µM each time. Besides, the TGI in test [7], in test [8], in [9], in test [10], in [11] and in test [12] was over 100 µM in each case. In addition, the TGI in test [13], in [14], in test [15], in [16], in test [17] and in test [18] was over 100 µM throughout. Also, the TGI in test [19] is over 100 µM.
As for `O=C1c2ccccc2C(=O)[C@@]23O[C@@]12C1(Oc2cccc4cccc(c24)O1)[C@@H]1O[C@@H]1[C@@H]3O`, the TGI in test [1] was over 64.3 µM; in test [2], over 49.1 µM; in test [3] it was 24.5 µM; in [4] it was 15.2 µM; in [5], 28.8 µM; in test [6], 27 µM. Further, the TGI in test [7] is 17.6 µM; in [8], 25.7 µM; in test [9], 15.6 µM; in [10] it was over 54.1 µM; in [11], 11.1 µM; in [12], 27.2 µM. In addition, the TGI in test [13] was over 100 µM; in test [14], 15.9 µM; in [15] it was over 59.6 µM; in [16], 12.8 µM; in test [17], 16.5 µM; in test [18], 40.1 µM. The TGI in test [19] was 28.6 µM.
With `c1ccc(Cc2nc(Cc3n[nH]c(Cc4ccccc4)n3)n[nH]2)cc1`, the TGI in test [1], in [2], in [3], in test [4], in test [5] and in test [6] was over 100 µM each time. The TGI in [7], in test [8], in test [9], in test [10], in [11] and in test [12] was over 100 µM each time. The TGI in test [13], in test [14], in test [15], in test [16], in [17] and in [18] was over 100 µM in each case. In addition, the TGI in [19] is over 100 µM.
Take `CCN1CCN(c2ccc(Nc3ccnc4ccc5c(nnn5C)c34)cc2)CC1`: the TGI in test [1] turned out to be 23 µM; in test [2], 19 µM; in test [3] it was 35.1 µM; in test [4] it was 72.4 µM; in test [5] it was 15.1 µM; in test [6] it was 15.4 µM. Also, the TGI in [7] worked out at 16.4 µM; in test [8] it was 17.4 µM; in [9] it was 6.21 µM; in test [10], 23.9 µM; in test [11] it was 36.3 µM; in test [12], 27.1 µM. Besides, the TGI in test [13] is 15.8 µM; in [14], 45.6 µM; in test [15], 17.9 µM; in test [16], 40.8 µM; in test [17] it was 13.1 µM; in [18], 26.1 µM. For the same compound, the TGI in test [19] was 32.2 µM.
For `COc1ccc(-c2c(=O)[nH]n3c(=S)nc(-c4ccccc4)[nH]c23)cc1OC`, the TGI in [1] amounted to 30.1 µM; in test [2] it was 83.8 µM; in [3], 33.4 µM; in [4], 48.8 µM; in test [5] it was 28.5 µM; in test [6], 31.3 µM. Also, the TGI was determined as 41.6 µM in test [7]; 84.9 µM in test [8]; 37.9 µM in test [9]; 54.7 µM in [10]; 37.6 µM in test [11]; 39.8 µM in test [12]. Further, the TGI in [13] came to 24.2 µM; in test [14], 53.1 µM; in test [15], 39.2 µM; in test [16], 50.4 µM; in test [17], 37 µM; in test [18] it was 61.1 µM. This compound showed a TGI in test [19] of 55.9 µM.
With `COc1ccc(/C=C/C(=O)/C=C/c2ccc(OC)cc2)cc1`, the TGI in [1] was over 100 µM; in test [2] it was 52.5 µM; in test [3] it was over 100 µM; in [4] it was over 100 µM; in [5], over 100 µM; in [6], 95.4 µM. The TGI in [7], in [8], in test [9], in [10], in test [11] and in test [12] was over 100 µM throughout. The TGI in test [13] was 68.4 µM; in test [14], over 100 µM; in test [15] it was 29.6 µM; in test [16] it was 31.4 µM; in [17], over 100 µM; in test [18], 41.3 µM. This compound also yielded a TGI in [19] of over 100 µM.
